Test results as given in ChEMBL document CHEMBL5223141, “New cycloalkyl[b]thiophenylnicotinamide-based α-glucosidase inhibitors as promising anti-diabetic agents: Synthesis, in silico study, in vitro and in vivo evaluations” (Bioorg Med Chem Lett, 2023).
Calls of active or inactive are those of the source. No cut-off for these calls is given here.

Tests used:
[1] = molecular target: Maltase-glucoamylase (Homo sapiens) (UniProt O43451); experiment: Inhibition of alpha-glucosidase (unknown origin) at 100 uM relative to control
Sequence of Maltase-glucoamylase (Homo sapiens) (O43451 whole entry, looked up): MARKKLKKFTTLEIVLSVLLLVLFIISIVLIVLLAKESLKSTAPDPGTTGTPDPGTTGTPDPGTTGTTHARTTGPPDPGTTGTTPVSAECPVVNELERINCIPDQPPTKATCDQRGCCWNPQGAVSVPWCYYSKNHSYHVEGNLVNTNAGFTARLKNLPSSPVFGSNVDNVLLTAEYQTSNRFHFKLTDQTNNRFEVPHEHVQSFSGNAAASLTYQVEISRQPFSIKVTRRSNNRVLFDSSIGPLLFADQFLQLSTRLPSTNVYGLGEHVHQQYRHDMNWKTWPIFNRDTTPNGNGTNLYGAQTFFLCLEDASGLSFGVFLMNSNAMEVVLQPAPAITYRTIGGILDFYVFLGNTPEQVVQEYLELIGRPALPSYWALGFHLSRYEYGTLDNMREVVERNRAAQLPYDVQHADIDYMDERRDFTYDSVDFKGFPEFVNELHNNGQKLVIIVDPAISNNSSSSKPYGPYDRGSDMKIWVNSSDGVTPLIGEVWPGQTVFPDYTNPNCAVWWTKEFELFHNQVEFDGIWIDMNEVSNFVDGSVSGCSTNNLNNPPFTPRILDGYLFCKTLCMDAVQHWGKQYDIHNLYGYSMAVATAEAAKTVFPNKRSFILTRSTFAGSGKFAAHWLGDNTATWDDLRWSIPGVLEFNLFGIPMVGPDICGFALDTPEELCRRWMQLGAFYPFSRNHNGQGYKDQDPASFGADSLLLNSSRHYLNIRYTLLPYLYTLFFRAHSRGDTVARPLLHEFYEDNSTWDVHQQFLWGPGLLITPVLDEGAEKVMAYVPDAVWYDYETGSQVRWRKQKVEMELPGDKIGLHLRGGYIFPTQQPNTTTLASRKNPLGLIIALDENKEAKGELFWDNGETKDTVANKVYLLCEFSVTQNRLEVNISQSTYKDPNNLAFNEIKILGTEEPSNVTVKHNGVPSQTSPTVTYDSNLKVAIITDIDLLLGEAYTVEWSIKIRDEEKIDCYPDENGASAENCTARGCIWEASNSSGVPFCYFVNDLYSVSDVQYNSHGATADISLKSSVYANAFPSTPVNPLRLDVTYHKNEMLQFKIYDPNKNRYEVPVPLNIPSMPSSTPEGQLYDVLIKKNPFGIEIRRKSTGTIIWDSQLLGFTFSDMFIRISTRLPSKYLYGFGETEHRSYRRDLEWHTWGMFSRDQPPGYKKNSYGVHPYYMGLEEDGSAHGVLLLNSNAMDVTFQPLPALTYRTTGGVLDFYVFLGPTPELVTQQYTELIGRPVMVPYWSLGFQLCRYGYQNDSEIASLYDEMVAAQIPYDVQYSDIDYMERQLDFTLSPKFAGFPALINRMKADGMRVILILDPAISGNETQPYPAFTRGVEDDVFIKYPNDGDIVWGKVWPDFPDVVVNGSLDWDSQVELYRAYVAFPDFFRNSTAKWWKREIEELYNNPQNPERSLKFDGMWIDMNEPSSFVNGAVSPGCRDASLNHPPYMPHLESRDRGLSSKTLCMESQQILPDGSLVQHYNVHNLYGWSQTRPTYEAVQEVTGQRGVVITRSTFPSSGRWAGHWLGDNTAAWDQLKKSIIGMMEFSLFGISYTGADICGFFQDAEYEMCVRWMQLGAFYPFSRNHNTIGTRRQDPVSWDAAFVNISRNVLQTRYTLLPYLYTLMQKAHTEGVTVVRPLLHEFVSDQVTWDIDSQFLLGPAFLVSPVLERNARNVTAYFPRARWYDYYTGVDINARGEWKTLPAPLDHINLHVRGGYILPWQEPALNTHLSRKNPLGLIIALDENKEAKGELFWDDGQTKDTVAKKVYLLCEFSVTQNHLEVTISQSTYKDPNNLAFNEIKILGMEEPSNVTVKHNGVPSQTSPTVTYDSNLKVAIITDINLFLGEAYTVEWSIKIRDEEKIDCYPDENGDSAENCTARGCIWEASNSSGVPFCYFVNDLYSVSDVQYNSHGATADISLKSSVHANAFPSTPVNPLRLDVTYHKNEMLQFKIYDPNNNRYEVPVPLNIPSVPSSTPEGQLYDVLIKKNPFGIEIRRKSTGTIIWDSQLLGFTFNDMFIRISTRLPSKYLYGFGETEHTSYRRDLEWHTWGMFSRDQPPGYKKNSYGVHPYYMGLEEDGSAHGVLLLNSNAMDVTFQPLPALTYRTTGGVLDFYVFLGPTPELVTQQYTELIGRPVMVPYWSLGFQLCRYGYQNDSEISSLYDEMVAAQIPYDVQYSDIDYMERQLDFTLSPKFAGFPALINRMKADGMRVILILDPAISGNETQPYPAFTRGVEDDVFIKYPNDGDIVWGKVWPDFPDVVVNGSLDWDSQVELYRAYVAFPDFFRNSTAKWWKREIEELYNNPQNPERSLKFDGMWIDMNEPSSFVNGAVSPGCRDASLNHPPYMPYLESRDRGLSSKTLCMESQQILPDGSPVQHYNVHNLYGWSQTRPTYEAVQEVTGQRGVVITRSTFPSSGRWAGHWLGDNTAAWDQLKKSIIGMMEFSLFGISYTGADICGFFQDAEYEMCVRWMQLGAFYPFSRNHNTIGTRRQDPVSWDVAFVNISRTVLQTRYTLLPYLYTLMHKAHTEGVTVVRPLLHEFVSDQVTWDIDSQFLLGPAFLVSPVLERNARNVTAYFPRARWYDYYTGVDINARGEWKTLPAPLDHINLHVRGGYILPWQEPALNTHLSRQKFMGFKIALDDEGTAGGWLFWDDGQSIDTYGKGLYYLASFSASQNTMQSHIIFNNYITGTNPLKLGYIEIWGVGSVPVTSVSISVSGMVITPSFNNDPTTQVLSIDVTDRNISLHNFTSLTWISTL

[2] = molecular target: T1, Alpha amylase (Homo sapiens, UniProt P0DUB6); experiment: Inhibition of alpha-amylase (unknown origin)
T1 sequence (P0DUB6 whole entry): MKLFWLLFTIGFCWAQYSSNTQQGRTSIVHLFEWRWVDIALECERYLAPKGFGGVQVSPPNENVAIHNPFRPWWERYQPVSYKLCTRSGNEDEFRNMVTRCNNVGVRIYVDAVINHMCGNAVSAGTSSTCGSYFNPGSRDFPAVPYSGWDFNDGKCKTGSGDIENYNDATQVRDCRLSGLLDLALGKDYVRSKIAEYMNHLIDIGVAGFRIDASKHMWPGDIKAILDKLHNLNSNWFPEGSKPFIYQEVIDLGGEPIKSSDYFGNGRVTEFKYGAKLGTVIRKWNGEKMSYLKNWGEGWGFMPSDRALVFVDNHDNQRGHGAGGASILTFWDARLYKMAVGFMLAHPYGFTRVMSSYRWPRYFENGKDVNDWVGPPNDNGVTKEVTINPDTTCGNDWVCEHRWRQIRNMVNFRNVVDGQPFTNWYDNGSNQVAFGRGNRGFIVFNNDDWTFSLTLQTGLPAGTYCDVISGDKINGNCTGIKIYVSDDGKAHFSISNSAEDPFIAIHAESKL

[3] = species: Homo sapiens; experiment: Selectivity ratio of IC50 for alpha-amylase (unknown origin) to IC50 for alpha-glucosidase (unknown origin)
[4] = test system: HepG2; experiment: Cytotoxicity against human HepG2 cells at 100 uM by MTT assay; format: toxicity, cell-based; settings: hepg2, 100 µM
[5] = test system: L02; experiment: Cytotoxicity against human L02 cells at 100 uM by MTT assay; format: toxicity, cell-based; settings: l02, 100 µM
[6] = molecular target: Maltase-glucoamylase (Homo sapiens) (UniProt O43451); experiment: Inhibition of alpha-glucosidase (unknown origin) assessed as increase in intrinsic fluorescence emission; settings: dose 0-100 µM
[7] = molecular target: Maltase-glucoamylase (Homo sapiens) (UniProt O43451); experiment: Mixed type inhibition of alpha-glucosidase (unknown origin) assessed as decrease in Vmax by measuring increase in slope using pNPG as substrate at upto 25 uM by Lineweaver-Burk plot analysis
[8] = molecular target: Maltase-glucoamylase (Homo sapiens) (UniProt O43451); experiment: Mixed type inhibition of alpha-glucosidase (unknown origin) assessed as increase in Km by measuring increase in intercept using pNPG as substrate at upto 25 uM by Lineweaver-Burk plot analysis
[9] = test system: Rattus norvegicus; experiment: Anti-hyperglycemic activity in sucrose loaded Sprague-Dawley rat assessed as blood glucose level at 5 mg/kg, po measured at 30 mins by oral sucrose tolerance test (reference value: 10.80+/-0.92 mmol/L); format: functional; settings: 0.5 h
[10] = test system: Rattus norvegicus; experiment: Anti-hyperglycemic activity in sucrose loaded Sprague-Dawley rat assessed as decrease in blood glucose level at 5 mg/kg, po measured after 45 mins by oral sucrose tolerance test; format: functional; settings: 0.75 h

Row | SMILES | inhibition [1] | Activity [4] | Activity [5] | also measured
1 | COc1cc(CNC(=O)c2c(NC(=O)c3cccnc3)sc3c2CCCC3)ccc1O | 93.6% | Non-Toxic | Non-Toxic | IC50 [2]: 72.9 µM; Ratio IC50 [3]: 7.4; Activity [6]: Dose-Dependent Effect; Activity [7]: Active; Activity [8]: Active; Activity [9]: 9.73 mmol/L; Activity [10]: 9.9 mmol/L
2 | C[C@H]1O[C@H](O[C@H]2[C@H](O)[C@@H](O)[C@@H](O[C@H]3[C@H](O)[C@@H](O)C(O)O[C@@H]3CO)O[C@@H]2CO)[C@H](O)[C@@H](O)[C@@H]1N[C@H]1C=C(CO)[C@@H](O)[C@H](O)[C@H]1O (stereo partly drawn) [ACARBOSE] | – | Non-Toxic | Non-Toxic | Activity [9]: 9.57 mmol/L; Activity [10]: 9.89 mmol/L
3 | COc1cc2c(cc1OC)CN(C(=O)c1c(NC(=O)c3cccnc3)sc3c1CCCC3)CC2 | 42.2% | – | – | –
4 | COC(=O)c1ccc(CNC(=O)c2c(NC(=O)c3cccnc3)sc3c2CCCCC3)cc1 | 18.1% | – | – | –
5 | COC(=O)c1ccc(CNC(=O)c2c(NC(=O)c3cccnc3)sc3c2CCCC3)cc1 | 58.2% | Non-Toxic | Non-Toxic | IC50 [2]: 66.9 µM; Ratio IC50 [3]: 0.8
6 | COc1cc2c(cc1OC)CN(C(=O)c1c(NC(=O)c3cccnc3)sc3c1CCCCC3)CC2 | 29.1% | – | – | –
7 | COc1cc(CNC(=O)c2c(NC(=O)c3cccnc3)sc3c2CCCCC3)ccc1O | 81.7% | – | – | –
8 | O=C(Nc1sc2c(c1C(=O)NCc1ccccc1)CCC2)c1cccnc1 | 56.6% | Non-Toxic | Non-Toxic | –
9 | COc1cc(CNC(=O)c2c(NC(=O)c3cccnc3)sc3c2CCC3)ccc1O | 50.6% | Non-Toxic | Non-Toxic | –
10 | O=C(Nc1sc2c(c1C(=O)NCc1ccccn1)CCC2)c1cccnc1 | 30.5% | Non-Toxic | Non-Toxic | –
11 | COc1ccc(CNC(=O)c2c(NC(=O)c3cccnc3)sc3c2CCC3)cc1 | 55.4% | Non-Toxic | Non-Toxic | –
12 | COc1ccc(CNC(=O)c2c(NC(=O)c3cccnc3)sc3c2CCCCC3)cc1 | 44.1% | – | – | –
13 | COc1cc2c(cc1OC)CN(C(=O)c1c(NC(=O)c3cccnc3)sc3c1CCC3)CC2 | 23.2% | Non-Toxic | Non-Toxic | –
14 | COc1ccc(CNC(=O)c2c(NC(=O)c3cccnc3)sc3c2CCCC3)cc1 | 78.1% | Non-Toxic | Non-Toxic | IC50 [2]: 80.4 µM; Ratio IC50 [3]: 2.7
15 | COC(=O)c1ccc(CNC(=O)c2c(NC(=O)c3cccnc3)sc3c2CCC3)cc1 | 21.9% | Non-Toxic | Non-Toxic | –
16 | O=C(Nc1sc2c(c1C(=O)NCc1ccncc1)CCC2)c1cccnc1 | 1.1% | Non-Toxic | Non-Toxic | –

Continued, in another order:

Row | inhibition [1] | SMILES | Activity [4] | Activity [5] | also measured
17 | 57.2% | O=C(Nc1sc2c(c1C(=O)NCc1ccccn1)CCCC2)c1cccnc1 | Non-Toxic | Non-Toxic | IC50 [2]: 94.8 µM; Ratio IC50 [3]: 1.5
18 | 26.8% | O=C(Nc1sc2c(c1C(=O)NCc1ccccn1)CCCCC2)c1cccnc1 | – | – | –
19 | 9.2% | O=C(Nc1sc2c(c1C(=O)NCc1ccncc1)CCCCC2)c1cccnc1 | – | – | –
20 | 12.5% | O=C(Nc1sc2c(c1C(=O)NCc1cccnc1)CCC2)c1cccnc1 | Non-Toxic | Non-Toxic | –
21 | 59% | O=C(Nc1sc2c(c1C(=O)NCc1ccccc1)CCCCC2)c1cccnc1 | – | – | –
22 | 62.7% | O=C(Nc1sc2c(c1C(=O)NCc1cccnc1)CCCC2)c1cccnc1 | Non-Toxic | Non-Toxic | IC50 [2]: 48.1 µM; Ratio IC50 [3]: 0.9
23 | 64.4% | O=C(Nc1sc2c(c1C(=O)NCc1ccccc1)CCCC2)c1cccnc1 | Non-Toxic | Non-Toxic | IC50 [2]: 76.1 µM; Ratio IC50 [3]: 1.7
24 | 26.5% | O=C(Nc1sc2c(c1C(=O)NCc1cccnc1)CCCCC2)c1cccnc1 | – | – | –
25 | 44.1% | O=C(Nc1sc2c(c1C(=O)NCc1ccncc1)CCCC2)c1cccnc1 | – | – | –
